In patent US20050009837A1, “Modulators of lipid metabolism and methods of use” (City of Hope, priority 2003, published 2005):

Tests used:
[1] = system: SRE reporter (FAS proximal promoter); assay: SRE reporter (FAS proximal promoter-luciferase) assay in CV-1 cells; assay type: cell-based
Protocol: Since LXR regulates SREBP-1c expression, LXR also should regulate activities downstream of SREBP-1c. To test this, CV-1 cells were transiently transfected with as in Example 6, but with the SRE or the SREm reporter, SREBP-1c-dependent reporter constructs consisting of the FAS proximal promoter linked to the luciferase gene. […] See Wang et al., Mol. Cell 3:543-553, 1999, the disclosures of which are hereby incorporated by reference. Cells then were treated as in Example 6 with the indicated compounds, Clotrimazole or 25-hydroxycholesterol (25-OH cholesterol). 25-OH cholesterol is known to repress the synthesis of SREBP-1c and is therefore used to eliminate the effects of this transcription factor on the FAS promoter (SRE).

CV-1 cells = assay: Cytotoxicity in transfected CV-1 cells; conditions: T0901317 100 nM; Clotrimazole, S883417, S100250 10 μM; approximately 40 hours
Protocol: (§1) Synthetic compounds were screened in an effort to find more specific LXR inhibitors. CV-1 cells were maintained and transfected using known methods. Forman et al., Cell 81: 687-693, 1995. CV-1 cells were transiently transfected with Gal-hLXRα, the RXR LBD, the UASGx4 TK Luc reporter and CMX-β-gal as an internal control, either in standard or in lipid-stripped serum. After transfection, cells were treated for approximately 40 hours with phenol red-free DMEM-FBS containing the indicated compounds at the following concentrations: T0901317 (100 nM), Clotrimazole (10 μM), S883417(10 μM) and S100250 (10 μM), unless otherwise specified. After exposure to ligand, the cells were harvested and assayed for luciferase and β-galactosidase activity. The luciferase activity was normalized to the internal β-galactosidase control (reporter activity).

[2] = target: T1, LXRα-RXR heterodimers and receptor interaction domains of coactivator SRC1 (Homo sapiens, UniProt Q13133); assay: LXR-coactivator association, VP-L-hLXRα / L-hRXRα / GAL4-SRC1 in CV-1 cells; assay type: cell-based; conditions: 20 μM, coactivator GAL4-SRC1, CV-1 cells
T1 construct: expressed in transfected cells; host or cells: CV-1 cells
T1 sequence (Q13133 209-447 limits assumed): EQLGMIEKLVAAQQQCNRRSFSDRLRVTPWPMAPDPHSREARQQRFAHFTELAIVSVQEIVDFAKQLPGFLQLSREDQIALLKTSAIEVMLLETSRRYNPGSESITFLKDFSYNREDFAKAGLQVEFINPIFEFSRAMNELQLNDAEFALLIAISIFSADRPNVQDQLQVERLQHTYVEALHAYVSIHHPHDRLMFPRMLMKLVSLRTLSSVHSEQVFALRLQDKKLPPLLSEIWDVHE
T1 sequence (P19793 227-458 partner limits assumed): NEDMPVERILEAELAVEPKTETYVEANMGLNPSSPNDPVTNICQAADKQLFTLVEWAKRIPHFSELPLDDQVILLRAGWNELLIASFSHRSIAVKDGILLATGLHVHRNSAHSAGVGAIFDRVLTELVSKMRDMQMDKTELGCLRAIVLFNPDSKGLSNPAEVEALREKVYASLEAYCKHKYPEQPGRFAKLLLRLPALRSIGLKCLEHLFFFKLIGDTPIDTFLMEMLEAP
Protocol: (§2) CV-1 cells were grown in DMEM supplemented with 10% resin-charcoal stripped fetal bovine serum, 50 U/ml penicillin G and 50 μg/ml streptomycin sulfate at 37° C. in 5% CO2. Cells were plated to 50-80% confluence one day prior to transfection using phenol red-free DMEM-FBS. The cells were transfected by lipofection using N-[1-(2,3-dioleoyloxy)propyl]-N,N,N-ammonium methyl sulfate according to manufacturer's instructions (Boehringer Mannheim).
(§3) Genes encoding the following full-length proteins, which are suitable for use in the studies described herein, were cloned into pCMX: human RXRα (Gene Bank accession X52773) and human LXRα (GenBank accession U22662). The cells were transfected with CMX-βgal and luciferase constructs. The CMX-βGal construct contained the ligand binding domain of human RXR (hRXRα) and the ligand binding domain of human LXRα (hLXRα) as indicated in FIG. 1. The luciferase reporter construct (LXREx3 TK-Luc) contained the herpes virus thymidine kinase promoter (−105/+51) linked to three copies of the response element LXRE. After transfection, the cells were treated with 20 μM of a synthetic azole test compound or vehicle alone for 40 hours in phenol red-free DMEM-FBS.
VP-L-hLXRα contains the transactivation domain of Herpes VP16, linked to the LBD of human LXRα, L-hRXRα is the LBD of human RXRα. UASGx4 TK-Luc was the reporter gene, and the assay additionally included the coactivator GAL4-SRC1. Treatment with 20 μM azole compound as indicated was able to inhibit interactions between LXRα-RXR heterodimers and the receptor interaction domains from the coactivator SRC1.

human LXRα = target: T2, human LXRα (Homo sapiens, UniProt Q13133); assay: Full-length hLXRα/hRXRα LXREx3 TK-Luc reporter assay in transfected CV-1 cells; assay type: cell-based; conditions: 20 μM, 40 hours
T2 construct: expressed in transfected cells; host or cells: CV-1 cells
T2 sequence (Q13133 1-447): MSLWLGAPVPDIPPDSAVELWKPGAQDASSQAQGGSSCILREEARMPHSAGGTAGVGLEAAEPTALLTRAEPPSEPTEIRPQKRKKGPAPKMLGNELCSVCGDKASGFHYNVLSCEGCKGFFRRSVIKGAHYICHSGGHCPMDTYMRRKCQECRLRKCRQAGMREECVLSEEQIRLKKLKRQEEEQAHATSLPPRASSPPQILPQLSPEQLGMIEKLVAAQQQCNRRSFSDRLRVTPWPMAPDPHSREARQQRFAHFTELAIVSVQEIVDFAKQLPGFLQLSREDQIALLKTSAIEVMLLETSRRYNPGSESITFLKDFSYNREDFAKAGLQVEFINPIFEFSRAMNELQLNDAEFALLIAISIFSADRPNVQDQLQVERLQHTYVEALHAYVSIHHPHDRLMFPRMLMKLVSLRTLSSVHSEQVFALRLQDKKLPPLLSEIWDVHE
T2 sequence (P19793 1-462 partner): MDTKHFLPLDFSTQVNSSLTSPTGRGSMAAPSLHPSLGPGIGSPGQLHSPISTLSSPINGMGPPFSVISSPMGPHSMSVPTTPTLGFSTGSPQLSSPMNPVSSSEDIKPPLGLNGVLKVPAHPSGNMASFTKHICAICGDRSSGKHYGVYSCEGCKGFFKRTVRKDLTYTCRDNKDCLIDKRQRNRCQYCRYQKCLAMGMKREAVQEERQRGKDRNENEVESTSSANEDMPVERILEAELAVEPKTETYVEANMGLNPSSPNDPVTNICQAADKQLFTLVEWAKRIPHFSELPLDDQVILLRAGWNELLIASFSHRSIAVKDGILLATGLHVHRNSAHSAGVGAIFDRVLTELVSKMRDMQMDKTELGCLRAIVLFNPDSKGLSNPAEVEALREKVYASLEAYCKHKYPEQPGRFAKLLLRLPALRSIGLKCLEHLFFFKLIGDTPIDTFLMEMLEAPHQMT
Protocol: as §2, §3

[3] = target: T3, ligand binding domain of LXRα-RXR heterodimers (Homo sapiens, UniProt Q13133); assay: LXR ligand binding domain mediated activity, UASGx4 TK-Luc reporter in CV-1 cells; assay type: cell-based; conditions: 20 μM
T3 construct: expressed in transfected cells; host or cells: CV-1 cells
T3 sequence (Q13133 209-447 limits assumed): T1 sequence (Q13133 209-447 limits assumed)
T3 sequence (P19793 227-458 partner limits assumed): T1 sequence (P19793 227-458 partner limits assumed)
Protocol: as §2
as §3, with “DMEM-FBS. After exposure to the candidate antagonist compounds, cells were harvested and assayed for luciferase and β-galactosidase activity.” for “DMEM-FBS.”
The reporter gene was UASGx4 TK-Luc.

LXRβ = target: T4, LXRβ (Homo sapiens, UniProt P55055); assay: Transient transfection assay Gal-LXRβ + RXR LBD, UASGx4 TK Luc reporter, CV-1 cells; assay type: cell-based; conditions: 10 μM; for repression of LXRβ activity: approximately 40 hours, lipid-stripped serum; for less effective than Clotrimazole in repressing LXRβ: relative to Clotrimazole
T4 construct: expressed in transfected cells; host or cells: CV-1 cells
T4 sequence (P55055 222-460 limits assumed): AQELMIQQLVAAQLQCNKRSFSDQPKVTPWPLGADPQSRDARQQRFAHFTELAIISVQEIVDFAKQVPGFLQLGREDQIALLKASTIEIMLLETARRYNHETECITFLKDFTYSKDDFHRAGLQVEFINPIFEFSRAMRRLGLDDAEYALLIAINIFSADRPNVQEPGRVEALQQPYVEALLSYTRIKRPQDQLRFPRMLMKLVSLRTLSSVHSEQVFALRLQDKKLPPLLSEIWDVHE
T4 sequence (P19793 227-458 partner limits assumed): T1 sequence (P19793 227-458 partner limits assumed)
Protocol: as §1
(§4) The ability of these compounds to repress LXRα and LXRβ was compared by transfecting CV-1 cells with either the RXR LBD alone or the RXR LBD together with either Gal-LXRα or Gal-LXRβ.
(§5) Transfections were performed as described above, with increasing concentrations of Clotrimazole.

LXRα [4] = target: T5, LXRα (Homo sapiens, UniProt Q13133); assay: Transient transfection assay Gal-hLXRα + RXR LBD, UASGx4 TK Luc reporter, CV-1 cells; assay type: cell-based; conditions: 10 μM; for repression of LXRα activity: approximately 40 hours, lipid-stripped serum; for less effective than Clotrimazole in repressing LXRα: relative to Clotrimazole
T5 construct: expressed in transfected cells; host or cells: CV-1 cells
T5 sequence (Q13133 209-447 limits assumed): T1 sequence (Q13133 209-447 limits assumed)
T5 sequence (P19793 227-458 partner limits assumed): T1 sequence (P19793 227-458 partner limits assumed)
Protocol: as §1, §4, §5

[5] = mice fed the agonist; cited from earlier work
SREBP-1c expression = assay: Real-time PCR of SREBP-1c expression in HepG2 cells; assay type: cell-based, human; conditions: 100 nM, 24 hours, versus untreated
Protocol: Real time PCR was then performed on cDNA derived from RNA isolated form the treated HepG2 cells as follows. Real time quantitative PCR assays were performed using an Applied Biosystems 7700 sequence detector (Applied Biosystems). Each reaction mixture contained 50 ng cDNA, 1.25 pmol each forward and reverse primer, and […] 2× SYBR Green PCR master mix (Applied Biosystems) in a final volume of 25 μl. The PCR conditions were 50° C. for 2 min, 95° C. for 10 min, and 40 cycles of 95° C. for 15 sec and 60° C. for 1 min. Samples were run in duplicate for each primer pair. Expression of glyceraldehyde-3-phosphate dehydrogenase (GAPDH) was analyzed in parallel as an internal control. Each sample was normalized to GAPDH and is represented in the Figure showing the results as arbitrary units with the expression levels in untreated cells assigned a value of one. The primer sequences are as follows: human SREBP-1c forward [NT] ID NO:1); human SREBP-1c reverse [NT] ID NO:2); human GAPDH forward [NT] ID NO:3) and human GAPDH reverse [NT] ID NO:4).

NIH3T3-L1 adipocytes = assay: Triglyceride content (Nile Red) of NIH3T3-L1 cells differentiated to adipocytes; assay type: cell-based; conditions: T0901317 200 nM or Clotrimazole 7.5 μm, 7 days
Protocol: NIH 3T3-L1 cells were maintained in growth media consisting of Dulbecco's modified Eagle's medium (DMEM) supplemented with 10% calf bovine serum (CBS), 50 U/ml penicillin G and 50 μg/ml streptomycin sulfate. To induce NIH 3T3-L1 differentiation into adipocytes, confluent cells were transferred from their growth media to DMEM containing 10% fetal bovine serum (FBS), 5 μg/ml insulin, 0.5 mM 3-isobutyl-1-methylxanthine (IBMX) and 1 μM dexamethasone for 7 days. During the differentiation period, cells also optionally received 200 nM T0901317, 7.5 μM Clotrimazole or both.
NIH3T3-L1 cells were allowed to differentiate for 7 days in the presence of a well-established differentiation cocktail containing dexamethazole (1 μm), IBMX (0.5 mM) and insulin (5 μg/ml) in the absence or presence of T0901317 (200 nM) or Clotrimazole (7.5 μm). The cells then were fixed and stained with Nile Red, which stains triglycerides (TG) green, and DAPI to visualize nuclei (in blue). TG content of the cell reflected increased or decreased lipogenesis.

LXRα [6] = target: LXRα (Homo sapiens, UniProt Q13133); assay: LXR activity, fatty acids

Compound	cytotoxicity (CV-1 cells)	inhibition of LXR-coactivator association [2]	antagonism of constitutive activation mediated by LXR (hLXRα activity, LXREx3 TK-Luc) (human LXRα)	inhibition of constitutive activation by the LXRα-RXR ligand binding domain (UASGx4 TK-Luc) [3]	repression of LXRβ activity (LXRβ)	less effective than Clotrimazole in repressing LXRβ (LXRβ)	repression of LXRα activity (LXRα [4])	less effective than Clotrimazole in repressing LXRα (LXRα [4])	also measured
C[C@H](CCCC(C)(C)O)[C@H]1CC[C@H]2[C@@H]3CC=C4C[C@@H](O)CC[C@]4(C)[C@H]3CC[C@]12C [25-OH cholesterol, 25-hydroxycholesterol]									LXRα induction of SRE reporter activity ([1]; LXRα co-transfected (3-fold increase)): prevented this induction; LXRβ induction of SRE reporter activity ([1]; LXRβ co-expression (almost 2-fold increase)): prevented this induction; activity of reporter containing mutated SRE ([1]; SREm reporter): no significant effects; repression of SRE reporter ([1]; absence of LXR): 50%
c1ccc(-c2cncn2C(c2ccccc2)(c2ccccc2)c2ccccc2)cc1 [S100250]	No cytotoxicity	inhibition of LXR-coactivator association	antagonize the constitutive activation mediated by LXR	inhibit constitutive activation	repressed	approximately 50%	repressed	approximately 50%	
Cl.FC(F)(F)c1cccc(C(c2ccccc2)(c2ccccc2)n2ccnc2)c1 [S883417]	No cytotoxicity	inhibition of LXR-coactivator association	antagonize the constitutive activation mediated by LXR	inhibit constitutive activation	repressed	approximately 50%	repressed	approximately 50%	
O=S(=O)(c1ccccc1)N(CC(F)(F)F)c1ccc(C(O)(C(F)(F)F)C(F)(F)F)cc1 [T0901317]									plasma triglycerides compared to mice fed a control diet [5]: elevated plasma triglycerides; increase of SREBP-1c expression (SREBP-1c expression): up to 4 fold; TG content compared to differentiation cocktail only (NIH3T3-L1 adipocytes): small overall increase in TG content
CC(=O)N1CCN(c2ccc(OCC3COC(Cn4ccnc4)(c4ccc(Cl)cc4Cl)O3)cc2)CC1 (stereo not shown) [ketonazole]			inactive						
CC/C=C\C/C=C\C/C=C\CCCCCCCC(=O)O [αlinoleic acid]									effect on LXR activity (LXRα [6]): LXR antagonist
